Consider 14 compounds from patent US7795261B2, “Substituted 1-piperidin-4-yl-4-pyrrolidin-3-yl-piperazine derivatives and their use as neurokinin antagonists” (Janssen Pharmaceutica NV, priority 2002, dated 2010).

Format in all cases: cell-based
In assay [1] the target is T1, NK2 (Homo sapiens, UniProt P21452).
T1 sequence (P21452 1-398): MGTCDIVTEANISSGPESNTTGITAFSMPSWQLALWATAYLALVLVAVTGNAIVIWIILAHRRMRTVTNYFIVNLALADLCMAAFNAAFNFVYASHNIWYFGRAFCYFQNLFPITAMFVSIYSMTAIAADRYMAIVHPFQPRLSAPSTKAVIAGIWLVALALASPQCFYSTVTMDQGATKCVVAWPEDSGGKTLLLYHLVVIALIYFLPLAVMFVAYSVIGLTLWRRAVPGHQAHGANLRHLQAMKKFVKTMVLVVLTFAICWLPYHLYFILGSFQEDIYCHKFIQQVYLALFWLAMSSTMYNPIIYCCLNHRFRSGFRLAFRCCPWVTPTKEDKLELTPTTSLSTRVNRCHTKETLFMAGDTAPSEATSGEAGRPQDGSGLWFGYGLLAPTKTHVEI
Kind of assay: Signal transduction (ST), intracellular Ca++ (FLIPR), NK2. The following applies: read-out: pIC50 NK2 (converted).

For assay [2], the target named is NK1 (Homo sapiens, UniProt P25103). The experiment in a line: Signal transduction (ST), intracellular Ca++ (FLIPR), NK1 antagonistic activity. To be noted: read-out: pIC50 NK1 (converted). The procedure, abridged: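 Antagonist IC50 was fitted by non-linear regression of peak intracellular Ca++ signals measured on FLIPR after agonist challenge. Beforehand, Fluo3-loaded confluent cells received antagonists over a concentration range for 20 min at room temperature in Ca++ Krebs buffer, pH 7.4.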
Sequence of NK1 (P25103 whole entry): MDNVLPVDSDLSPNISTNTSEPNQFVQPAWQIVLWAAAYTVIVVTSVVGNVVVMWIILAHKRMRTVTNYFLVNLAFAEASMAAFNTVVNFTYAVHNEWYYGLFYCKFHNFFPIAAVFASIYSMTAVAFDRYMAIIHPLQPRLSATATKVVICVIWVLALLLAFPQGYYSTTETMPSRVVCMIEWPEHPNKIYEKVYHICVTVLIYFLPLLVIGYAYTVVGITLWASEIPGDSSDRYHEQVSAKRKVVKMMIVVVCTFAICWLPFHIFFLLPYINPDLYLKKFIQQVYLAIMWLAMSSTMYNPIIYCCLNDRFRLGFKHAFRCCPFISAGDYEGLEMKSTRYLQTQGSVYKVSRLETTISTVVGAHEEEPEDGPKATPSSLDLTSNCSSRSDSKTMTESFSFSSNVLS

Assay [3] concerns the target T2, NK3 (Homo sapiens, UniProt P29371).
T2 sequence (P29371 1-465): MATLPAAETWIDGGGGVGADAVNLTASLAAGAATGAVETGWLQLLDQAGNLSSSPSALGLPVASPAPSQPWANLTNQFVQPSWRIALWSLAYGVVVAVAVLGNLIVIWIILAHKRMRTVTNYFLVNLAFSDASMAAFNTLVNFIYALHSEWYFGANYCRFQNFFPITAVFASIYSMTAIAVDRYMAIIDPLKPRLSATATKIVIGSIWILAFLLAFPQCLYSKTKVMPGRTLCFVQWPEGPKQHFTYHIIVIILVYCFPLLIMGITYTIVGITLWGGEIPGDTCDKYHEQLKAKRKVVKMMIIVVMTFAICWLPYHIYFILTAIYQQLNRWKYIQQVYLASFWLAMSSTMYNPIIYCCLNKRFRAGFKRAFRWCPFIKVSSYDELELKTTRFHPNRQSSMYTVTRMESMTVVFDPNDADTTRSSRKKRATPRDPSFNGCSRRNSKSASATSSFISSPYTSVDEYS
The experiment in a line: Signal transduction (ST), intracellular Ca++ (FLIPR), NK3. To be noted: read-out: pIC50 NK3 (converted).

For the compound `O=C(c1ccccc1Cl)N1CCC(N2CCN(C3CCN(C(=O)c4cc(C(F)(F)F)cc(C(F)(F)F)c4)C(Cc4ccc(F)cc4)C3)CC2)C1` (stereo not drawn) [Compound 279], the IC50 in assay [1] is 3980 nM; in assay [2] it was 15.8 nM; in assay [3] it was 2000 nM.
The like results for `COc1ccc(S(=O)(=O)N2CCC(N3CCN([C@H]4CCN(C(=O)c5cc(C(F)(F)F)cc(C(F)(F)F)c5)[C@H](Cc5ccccc5)C4)CC3)C2)cc1` (stereo partly drawn) [Compound 280] were, in that order, 1260 nM, 15.8 nM and 3980 nM.
In the case of `Cn1cnc(C(=O)N2CCC(N3CCN([C@H]4CCN(C(=O)c5cc(C(F)(F)F)cc(C(F)(F)F)c5)[C@H](Cc5ccccc5)C4)CC3)C2)c1` (stereo partly drawn) [Compound 282], the IC50 is 3980 nM in assay [1], 12.6 nM in assay [2] and 3980 nM in assay [3].
On to `N#Cc1ccc(NC(=O)N2CCC(N3CCN([C@H]4CCN(C(=O)c5cc(C(F)(F)F)cc(C(F)(F)F)c5)[C@H](Cc5ccccc5)C4)CC3)C2)cc1` (stereo partly drawn) [Compound 283], for which the IC50 in assay [1] is 3980 nM; in assay [2] it was 25.1 nM; in assay [3], 2510 nM.
In the case of `O=C(Nc1ccccc1F)N1CCC(N2CCN([C@H]3CCN(C(=O)c4cc(C(F)(F)F)cc(C(F)(F)F)c4)[C@H](Cc4ccccc4)C3)CC2)C1` (stereo partly drawn) [Compound 284], the values for the IC50 in assay [1], in assay [2] and in assay [3] were 5010 nM, 12.6 nM and 3980 nM, respectively.
Consider `O=C(c1cnccn1)N1CC[C@@H](N2CCN([C@H]3CCN(C(=O)c4cc(C(F)(F)F)cc(C(F)(F)F)c4)[C@H](Cc4ccc(Cl)c(Cl)c4)C3)CC2)C1` [Compound 286], for which the IC50 in assay [1] is 1000 nM; in assay [2] it was 6.31 nM; in assay [3], 398 nM.
Consider `O=C(c1ccsc1)N1CC[C@@H](N2CCN([C@H]3CCN(C(=O)c4cc(C(F)(F)F)cc(C(F)(F)F)c4)[C@H](Cc4ccc(Cl)c(Cl)c4)C3)CC2)C1` [Compound 287], for which the IC50 in assay [1] was 1260 nM; in assay [2], 12.6 nM; in assay [3], 251 nM.
The like results for `O=C(c1ccoc1)N1CC[C@@H](N2CCN([C@H]3CCN(C(=O)c4cc(C(F)(F)F)cc(C(F)(F)F)c4)[C@H](Cc4ccc(Cl)c(Cl)c4)C3)CC2)C1` [Compound 288] were, in that order, 1580 nM, 7.94 nM and 794 nM.
The like results for `CC(C)(C)C(=O)N1CC[C@@H](N2CCN([C@H]3CCN(C(=O)c4cc(C(F)(F)F)cc(C(F)(F)F)c4)[C@H](Cc4ccc(Cl)c(Cl)c4)C3)CC2)C1` [Compound 289] were, in that order, 2000 nM, 7.94 nM and 794 nM.
The like results for `O=C(c1cc(C(F)(F)F)cc(C(F)(F)F)c1)N1CC[C@H](N2CCN(C3CCN(S(=O)(=O)c4sccc4COCc4ccccc4)C3)CC2)C[C@H]1Cc1ccccc1` (stereo partly drawn) [Compound 292] were, in that order, 794 nM, 100 nM and 794 nM.
As for `CC(C)NC(=O)N1CCC(N2CCN([C@H]3CCN(C(=O)c4cc(C(F)(F)F)cc(C(F)(F)F)c4)[C@H](Cc4ccccc4)C3)CC2)C1` (stereo partly drawn) [Compound 293], the IC50 is 6310 nM in assay [1], 15.8 nM in assay [2] and 5010 nM in assay [3].
Regarding `O=C(C1CCCCN1C(=O)c1ccccc1Cl)N1CCC(N2CCN(C3CCN(C(=O)c4cc(C(F)(F)F)cc(C(F)(F)F)c4)C(Cc4ccccc4)C3)CC2)C1` (stereo not drawn) [Compound 295], the values for the IC50 in assay [1], in assay [2] and in assay [3] were 2000 nM, 15.8 nM and 316 nM, respectively.
The like results for `O=C(C1CCCCN1C(=O)C1CC1)N1CCC(N2CCN([C@H]3CCN(C(=O)c4cc(C(F)(F)F)cc(C(F)(F)F)c4)[C@H](Cc4ccccc4)C3)CC2)C1` (stereo partly drawn) [Compound 296] were, in that order, 1580 nM, 6.31 nM and 794 nM.
The like results for `CC(C)(C)C(=O)N1CCCCC1C(=O)N1CCC(N2CCN([C@H]3CCN(C(=O)c4cc(C(F)(F)F)cc(C(F)(F)F)c4)[C@H](Cc4ccccc4)C3)CC2)C1` (stereo partly drawn) [Compound 297] were, in that order, 2510 nM, 6.31 nM and 1260 nM.
